# Columns and labels:
# [1] = tested on: hair cells of organ of Corti explant; experiment: Hair cell lesioning of organ of Corti cultures with neomycin; format: cell-based, mouse; conditions: 1 mM neomycin, organotypic cultures, 48 h, calbindin immunoreactivity and cross-section analysis
# Method: To test whether inhibition of the p27^Kip1 gene product in p27^Kip1 +/+ cochlea would allow non-mitotic supporting cells to proliferate, wild type organ of Corti explants (P7-P10, at age of hearing onset) were treated with p27^Kip1 antisense oligonucleotides (ONs). Explant cultures were established by dissecting the organ of Corti from the cochlea, removing the tectorial membrane and adhering the organ of Corti to a glass slide coated with Cell-tak and maintained at 37° C. in a 5% CO2 environment. The explant was then exposed to an ototoxic antibiotic (1 mM neomycin sulfate) for 48 h which killed >95% of the HCs (Kil, J., et al., ARO abs. 21:672 (1998)). […] Some of these living cultures were examined under fluorescence to detect the presence of FITC conjugated antisense ON. […]
# An aminoglycoside antibiotic lesion of the hair-cells is then be combined with subsequent lipofection. […] Unlike cultures derived from neonatal mice, the two-week old mouse which has developed auditory function is more easily affected by this concentration of neomycin resulting in a greater than 95% loss of hair-cells as determined by calbindin immunoreactivities and plastic cross-section analysis. […] This may necessitate the use of a commercially available GFP antibody (Clonetech) to enhance the fluorescence of lipofected cells.
# [2] = tested on: hair cells of organ of Corti explant; conditions: 1 mM neomycin sulfate for 48 h; P7-P10 wild type explants; cited from earlier work
# guinea pig JH4 cells = experiment: Reversal of serum-deprivation growth arrest, BrdU labeling; format: cell-based
# From the text: Cells were counted under fluorescence microscopy. The combination of lipids and p27^kip1. AS reversed growth arrest to 40% of that seen with 10% FBS stimulation (p<0.0001). (+) FBS; (−) no FBS; (AS) antisense oligonucleotide; (lipid) lipofection.
# Cultures of cell lines were established that are responsive to p27^Kip1 antisense oligonucleotides (ON) during the period of serum withdrawal and growth arrest. These cultures include a guinea pig fibroblast line (JH4). Lipofection of the 16 mer antisense ON (having the nucleic acid sequence set forth in SEQ ID NO:20) reversed growth arrest in the JH4 cell line to over 40% of normal.
# auditory function = experiment: Auditory brainstem response (ABR) threshold after amikacin sulfate treatment; format: in vivo, mice; conditions: p27 heterozygotes, two and four weeks after amikacin sulfate treatment; p<0.001
# Method: Experimental animals were treated the same as the mice described in the experiments reported in Table 2 herein, except that, in the present example, there was an additional recovery time point at four weeks after amikacin treatment. Auditory function was measured using the auditory brainstem response (ABR) using subcutaneous recording electrodes placed on three head points in Isofluorane anesthetized mice. The sound intensity threshold was determined by presenting single frequencies as different sound intensities (intensity measured in decibels). The higher the tone intensity that is required to elicit the ABR, the higher the auditory threshold, i.e., the worse the auditory function.
# organ of Corti = experiment: BrdU-labeled cells in the organ of Corti of p27^Kip1 +/+, +/−, −/− mice after amikacin lesioning; format: in vivo; conditions: for number of BrdU labeled cells in the organ of Corti: 1000 μm length of sensory epithelium, apical half of cochlea, ±s.d.
# Method: To determine whether auditory hair cells were being produced after the onset of hearing at postnatal day 10, two-week old p27^Kip1 −/−, +/−, +/+ mice (P10-12) received three daily systemic injections of bromodeoxyuridine (BrdU; 30 mg/kg/s.c), a nucleotide analog which is incorporated into proliferating cells during S phase. Mice were then permitted to recover for two-days or two-weeks without further injections. BrdU positive HCs were identified with immunocytochemistry using light and fluorescence microscopy. Cochlea were also labeled with antibodies against myosin-VI and myosin-VIIa. In two-week old p27^Kip1 −/− cochlea that were recovered for 2d after the last injection, no BrdU/myosin-VIIa positive cells were observed among the BrdU positive cells. However, in four-week old p27^Kip1 −/− cochlea that were recovered for 14 days after the last injection, BrdU/myosin-VIIa positive HCs were observed. Most of those double labeled were IHCs. This qualitative finding is similar to our quantitative assessments of IHCs and OHCs numbers. p27^Kip1 +/−, +/+ mice were completely devoid of BrdU positive cells at 2d and 14d of recovery. […] Counts were performed on a 1000 μm length of sensory epithelium taken in the apical half of the cochlea (±s.d.). Proliferation in the BrdU groups were compared across +/+, +/−and −/−. Proliferation in the BrdU/Amikacin group was compared with that in the BrdU only group of the same genotype. Statistical significance was determined using ANOVA.
# To ascertain whether auditory HCs could be regenerated, HCs were lesioned using systemic injections of amikacin sulfate (P7-P12) and then injected with BrdU (P10-12). Mice were sacrificed either 2 d or 14 d after the last injection. The effects of an amikacin lesioning were at least two-fold. First, in both p27^Kip1 −/− and +/− mice, the number of BrdU positive cells increased following amikacin/BrdU vs BrdU alone treatment. […] Evidence of HC regeneration was confirmed by sectioning the labeled cochlea. Second, a greater number of BrdU positive HCs were observed following amikacin lesioning in p27^Kip1 −/− cochlea. The majority of the BrdU positive HCs appeared in the regions of the cochlea where the amikacin sulfate had injured or killed HCs (in the basal half of the cochlea).
# [3] = tested on: utricular, saccular and cristae sensory epithelium; experiment: BrdU-labeled cells in the vestibular organs of p27^Kip1 mice after amikacin/BrdU; format: in vivo; conditions: for number of BrdU labeled cells, utricle: BrdU/Amikacin (500 mg/kg/d s.c., P7-P12)
# Method: To determine whether p27^Kip1 plays a similar role in the peripheral vestibular system, the proliferative capacity of the utricle, saccule and cristae of p27^Kip1 +/−, and +/+ mice was examined. Mice (P7-P12) received systemic injections of amikacin sulfate (500 mg/kg/d/s.c) for six consecutive days that were combined with injections of the replication marker, bromodeoxyuridine (BrdU; 30 mg/kg/d/s.c) between P10-P12. Mice were also injected with BrdU alone in a similar fashion. Mice were then sacrificed 14 d later and the vestibular sensory organs were fixed, dissected and processed for BrdU immunocytochemistry. BrdU positive nuclei were counted from whole mounts using light microscopy and Nomarski optics. Selected organs were further processed for cross section analysis.
# BrdU positive HCs were also observed in both otolithic organs. Most of these regenerated HC appeared as type I HCs in that they were contacted by a calyx. […] In p27^Kip1 +/+ mice, no BrdU positive nuclei in either the saccule or utricle were observed after amikacin/BrdU or BrdU alone. […] Counts were performed from whole utricular, saccular and cristae sensory epithelium (±s.d.). In the BrdU group, statistical significance was determined by comparing proliferation levels in the same sensory organ across +/+, +/− and −/−. In the BrdU/Amikacin group, statistical significance was determined by comparing proliferation levels in the same sensory organ of the same genotype. Statistical significance was determined using ANOVA.
# [4] = tested on: supporting cells of wild type organ of Corti explants; experiment: p27^Kip1 antisense oligonucleotide treatment of neomycin-lesioned organ of Corti explants, BrdU immunocytochemistry; format: cell-based, mouse
# Method: To test whether inhibition of the p27^Kip1 gene product in p27^Kip1 +/+ cochlea would allow non-mitotic supporting cells to proliferate, wild type organ of Corti explants (P7-P10, at age of hearing onset) were treated with p27^Kip1 antisense oligonucleotides (ONs). Explant cultures were established by dissecting the organ of Corti from the cochlea, removing the tectorial membrane and adhering the organ of Corti to a glass slide coated with Cell-tak and maintained at 37° C. in a 5% CO2 environment. The explant was then exposed to an ototoxic antibiotic (1 mM neomycin sulfate) for 48 h which killed >95% of the HCs (Kil, J., et al., ARO abs. 21:672 (1998)). The neomycin containing media was then removed and p27^Kip1 antisense oligonucleotides (Ons) (40 nM) were administered using a cationic lipid (lipofection) for a period of 24-48 hr. Some of these living cultures were examined under fluorescence to detect the presence of FITC conjugated antisense ON.
# FITC-positive supporting cells were detected in 18-24 h and increased in number and fluorescent intensity between 24-48 h. Cultures were aldehyde fixed and processed for BrdU immunocytochemistry. […] BrdU-positive doublets appeared in antisense ON treated cultures that were recovered for an additional 24 hr without antisense ONs. […] Lipofection-only treated cultures contained very low levels of BrdU-labeled supporting cells.
# [5] = p27^Kip1 +/+ mice, BrdU/Amikacin, 14 d recovery, whole sensory epithelium, ±s.d.
# [6] = p27^Kip1 +/− mice, BrdU/Amikacin, 14 d recovery, whole sensory epithelium, ±s.d.
# [7] = p27^Kip1 −/− mice, BrdU/Amikacin, 14 d recovery, whole sensory epithelium, ±s.d.
molecule,measurement,setting,value
neomycin sulfate,loss of hair cells,[1],greater than 95%
same,loss of hair cells,[1]; listed as neomycin,95%
same,HCs killed,[2],> 95%
"16 mer antisense ON: 16 mer p27^Kip1 antisense ON having the nucleic acid sequence set forth in SEQ ID NO:20 (antisense TGGCTCTCCTGCGCC; listed as DNA, chemistry not given here)",reversal of growth arrest,"guinea pig JH4 cells; lipofection, serum withdrawal",over 40 % of normal
same,reversal of growth arrest (BrdU-labeled cells),"guinea pig JH4 cells; serum deprivation 24 hours, BrdU pulse last 4 hours, combination of lipids and AS, p<0.0001",40 % of that seen with 10% FBS stimulation
"NCC[C@H](O)C(=O)N[C@@H]1C[C@H](N)[C@@H](O[C@H]2O[C@H](CN)[C@@H](O)[C@H](O)[C@H]2O)[C@H](O)[C@H]1O[C@H]1O[C@H](CO)[C@@H](O)[C@H](N)[C@H]1O.O=S(=O)(O)O.O=S(=O)(O)O [Amikacin, amikacin sulfate]",auditory improvement (ABR threshold),auditory function,five out of eight
same,number of BrdU positive cells following amikacin/BrdU vs BrdU alone treatment,organ of Corti; cochlea of both p27^Kip1 −/− and +/− mice,increased
same,number of BrdU labeled cells in the organ of Corti,"organ of Corti; p27^Kip1 +/+ mice, BrdU/Amikacin + 2d recovery",0.0 ± 0.0
same,number of BrdU labeled cells in the organ of Corti,"organ of Corti; p27^Kip1 +/+ mice, BrdU/Amikacin + 14d recovery",0.0 ± 0.0
same,number of BrdU labeled cells in the organ of Corti,"organ of Corti; p27^Kip1 +/− mice, BrdU/Amikacin + 2d recovery",4.7 ± 7.6
same,number of BrdU labeled cells in the organ of Corti,"organ of Corti; p27^Kip1 +/− mice, BrdU/Amikacin + 14d recovery",10.5 ± 12.0
same,number of BrdU labeled cells in the organ of Corti,"organ of Corti; p27^Kip1 −/− mice, BrdU/Amikacin + 2d recovery",96.3 ± 9.5
same,number of BrdU labeled cells in the organ of Corti,"organ of Corti; p27^Kip1 −/− mice, BrdU/Amikacin + 14d recovery",137.4 ± 17.0
same,p27 heterozygotes showing evidence of inner cell proliferative regeneration (BrdU-labeling and morphologic criteria),"organ of Corti; p27 heterozygotes of Table 2, amikacin treated",five out of ten
same,BrdU positive cells in wt cochlea,organ of Corti; wt cochlea following amikacin/BrdU,No BrdU positive cells were observed
same,"number of BrdU labeled cells, utricle","[3]; p27^Kip1 +/+ mice, 14 d recovery, whole sensory epithelium, ±s.d.",0.0 ± 0.0
same,"number of BrdU labeled cells, cristae",[3]; [5],0.0 ± 0.0
same,"number of BrdU labeled cells, saccule",[3]; [5],0.0 ± 0.0
same,proliferation in the saccule or utricle after combined amikacin/BrdU treatment,[3]; p27^Kip1 +/− mice,a very low level of proliferation was induced
same,"number of BrdU labeled cells, utricle","[3]; p27^Kip1 +/− mice, 14 d recovery, whole sensory epithelium, ±s.d.",0.4 ± 0.7
same,"number of BrdU labeled cells, cristae",[3]; [6],0.0 ± 0.0
same,"number of BrdU labeled cells, saccule",[3]; [6],1.6 ± 1.9
same,"number of BrdU labeled cells, utricle","[3]; p27^Kip1 −/− mice, 14 d recovery, whole sensory epithelium, ±s.d.",45.5 ± 19.2
same,"number of BrdU labeled cells, cristae (sub-head printed as utricle)",[3]; [7],0.0 ± 0.0
same,"number of BrdU labeled cells, saccule",[3]; [7],51.8 ± 15.3
same,increase in the number of BrdU positive cells after combined amikacin/BrdU treatment,"[3]; p27^Kip1 −/− mice, saccule and utricle (both organs), versus BrdU only",40 fold
"antisense ON: p27^Kip1 antisense oligonucleotides administered using a cationic lipid (lipofection) to organ of Corti explants (antisense TGGCTCTCCTGCGCC; FITC conjugated, delivered with cationic lipid, further chemistry not given here)",BrdU-positive supporting cells,"[4]; 40 nM antisense ON by lipofection, after 24 h of treatment, after 1 mM neomycin 48 h",appeared in most cochlear cultures
same,time at which FITC-positive supporting cells were detected,"[4]; FITC conjugated antisense ON, lipofection, living cultures under fluorescence",18 to 24 h
same,BrdU-positive doublets,[4]; antisense ON treated cultures recovered for an additional 24 hr without antisense ONs,appeared
